“And” between values parts separate entries of the source, which are not always exact repeats. Equal entries are not always repeated. Positions of bridges follow the written chain, without caps; N, C: chain ends. No end group written: not given here.
Assays:
[1] = tested on: Schaffer collateral-CA1 synaptic transmission in mouse hippocampal slices after OGD; experiment: fEPSP recovery after oxygen-glucose deprivation (OGD) in hippocampal slices, treatment during OGD (Example 7); assay type: cell-based, C57Bl6/J mice; conditions: NX218 250 μg/mL during OGD, n=9 slices
Protocol: Acute episodes of hypoxia may cause a depression in synaptic activity in many brain regions. […] To meet this goal, functional recovery was assessed by recording evoked field excitatory postsynaptic potentials (fEPSPs) in mouse hippocampal neurons, before and after oxygen-glucose deprivation (OGD).
Experiments were carried out with 4-5 weeks old male C57Bl6/J mice (approximately 20 grams) obtained from Charles River, France. In total, 9 mice were used in this study. Two slices were recorded from each mouse (one for the control condition and another for the NX218 condition). Animals were acclimated to laboratory housing conditions for 13 days prior to experimental use. Standard Food (Type a04, SAFE, France) was available ad libitum. Filtered mains drinking water ([…]) was available ad libitum.
Sagittal hippocampal brain slices were obtained using standard brain slicing methods (approximately 6 slices per mouse) (Knobloch et al. 2007). Mice were anesthetized with 5% isoflurane and then decapitated. Brain was dissected out of the cranium and immediately immersed in ice-cold freshly prepared artificial cerebrospinal fluid (aCSF) containing: 124 mM NaCl, 3.75 mM KCl, 2 mM MgSO4, 2 mM CaCl2, 26.5 mM NaHCO3, 1.25 mM NaH2PO4, 10 mM glucose, continuously oxygenated (95% O2, 5% CO2) (pH=7.4) for a total duration of 3-4 minutes. Acute slices (350 μm thick) were prepared using a vibratome (VT 1000S; Leica Microsystems, Bannockburn, IL). […]
For electrophysiological recordings, a single slice was placed in the recording chamber (room temperature), submerged and continuously superfused with gassed aCSF (95% O2, 5% CO2; pH=7.4) at a constant rate (2 mL min^−1) for the reminder of the experiment. Extracellular field excitatory postsynaptic potentials (fEPSPs) were recorded in the CA1 stratum radiatum using a glass micropipette filled with aCSF. fEPSPs were evoked by the electrical stimulation of Schaffer collateral-commissural pathway at 0.1 Hz (i.e., a single pulse every 10 s) with a glass stimulating electrode (borosilicate capillary glass with filament, standard wall; OD: 1.5 mm; ID: 0.86 mm; Length: 75 mm; ref: W3 30-0060 from Harvard Apparatus) placed in the stratum radiatum.
At the beginning of each experiment (when a stable fEPSP response was reached), Input/Output (I/O) curves were obtained by gradual increases in stimulus intensity (from 0 to 100 μA, 10 μA intervals) to determine the intensity of stimulation that was kept for the reminder of the experiment. Stable baseline fEPSPs was then recorded during 10 minutes by stimulating at 80% of maximal field amplitude (single pulse every 10 s, i.e., 0.1 Hz). […]

[2] = tested on: scopolamine-induced spatial short-term working memory deficits in mice; experiment: Y-maze spontaneous alternation in the scopolamine mouse model of amnesia; assay type: in vivo, Swiss mice
Protocol: Male Swiss mice, weighing 30-35 g, from JANVIER (Saint Berthevin, France), were housed in groups with access to food and water ad libitum, except during behavioral experiments. They were kept in a temperature and humidity-controlled animal facility on a 12 h/12 h light/dark cycle (lights off at 07:[…]). Mice were numbered by marking their tail with permanent markers. All animal procedures were conducted in strict adherence to the European Union directive of Sep. 22, 2010 (2010/63/UE). In each cage (n=6 per cage), treatment regimen was the same. Animals were tested in a random and blind manner.
Donepezil (DPZ) used as positive control was administered per os at a dose of 1 mg/kg once 1 h before the YM test.
Scopolamine was administered at a dose of 0.5 mg/kg by subcutaneous injection 30 minutes before the YM session.
After administration of compounds at different timepoints all animals were tested for spontaneous alternation performance in the YM, an index of spatial working memory. The YM was designed according to Itoh and collaborators (1993) and Hiramatsu and Inoue (1999) and is made of grey polyvinylchloride. Each arm is 40-cm long, 13-cm high, 3-cm wide at the bottom, 10-cm wide at the top, and converging at an equal angle. Each mouse was placed at the end of one arm and allowed to move freely through the maze during an 8-min session. The series of arm entries, including possible returns into the same arm, were checked visually. An alternation was defined as entries into all three arms on consecutive occasions. The number of maximum alternations is therefore the total number of arm entries minus two and the percentage of alternation was calculated as (actual alternations/maximum alternations)×100. Parameters included the percentage of alternation, called memory index, and total number of arm entries, called exploration index (Maurice et al., 1996, 1988; Meunier et al., 2006; Villard et al., 2009, 2011).
Animals showing an extreme behavior (alternation percentage <20% or >90% or number of arm entries <10) would have been discarded from the calculation. No animal was discarded accordingly.

With “W-S-G-W-S-S-C-S-R-S-C-G [NX218] (WSGWSSCSRSCG; disulfide 7-11 (inferred))” the “averaged normalized f-EPSP slope” value ([1]; 0-30 min after start of OGD, vehicle 31.618) was 31.043 % of baseline, the “averaged normalized f-EPSP slope” value ([1]; 30-60 min after start of OGD, vehicle 47.152) was 61.7±5.0 % of baseline and 61.663 % of baseline and the “averaged normalized f-EPSP slope” value ([1]; 60-90 min after start of OGD, vehicle 69.598) was 88.0±2.6 % of baseline and 87.959 % of baseline. For the same substance, the “averaged normalized f-EPSP slope” value ([1]; last 10 min (of 90 min) after start of OGD, vehicle 72.432) was 92.6±2.4 % of baseline and 92.639 % of baseline, the “effect on scopolamine-induced spatial short-term working memory impairments (Y-maze)” value ([2]; 2.5 mg/kg i.p. (lowest tested dose) 24 h before the test) was “efficacy was already demonstrated” and the “effect on scopolamine-induced spatial short-term working memory impairments (Y-maze)” value ([2]; 5 mg/kg i.p. 2 h before the test, data not shown) was “only partial”. The “effect on scopolamine-induced spatial short-term working memory impairments (Y-maze)” value ([2]; 5 mg/kg i.p. 24 h before the test, data not shown) was “complete reversal effect”, the “effect on scopolamine-induced spatial short-term working memory impairments (Y-maze)” value ([2]; 5 mg/kg i.p. 48 h before the test, data not shown) was “partially blocked” and the “effect on scopolamine-induced spatial short-term working memory impairments (Y-maze)” value ([2]; 10 mg/kg i.p. 48 h before the test, data not shown) was “completely counteracted”. For the same substance, the “effect on scopolamine-induced spatial short-term working memory impairments (Y-maze)” value ([2]; 15 mg/kg i.p. once 48 h before the test, data not shown) was “partially blocked”, the “dose with maximum effect on scopolamine-induced memory impairments (Y-maze)” value ([2]; i.p. once 24 h before the test, bell-shaped dose-response curve) was 10 mg/kg and the “spontaneous alternance in Y-maze” value ([2]; scopolamine + 10 mg/kg i.p. 24 h before test, scopolamine alone 45, control 70, n=6, 10 mg/kg) was 71%.

— patent publication US20250177481A1, “SCO-spondin-derived polypeptides for enhancing synaptic transmission” (AXOLTIS PHARMA, priority 2021, published 2025)
